These results are taken from US20260035364A1, “BICYCLIC TETRAHYDROTHIAZEPINE DERIVATIVES” (Hoffmann-La Roche Inc., priority 2022, published 2026).

A value given as a limit tells only on which side of the number the result lay.

The subject of one assay is primary human T-cells. As to the kind of experiment: IL2 secretion measurements in CD3-stimulated T-cells. Particulars: Homo sapiens, T-cell, 24 h, CD3 condition; for Emax: IL2 after 24 hours, 20 μM reference compound A1 = 100%, read-out: Emax IL2 (% activation); for EC50: IL2 secretion after 24 hours, read-out: Tcell IL2 CD3 EC50. The class given is cell-based. The gist of the method: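 Expanded primary human T-cells (100k/well) were stimulated on CD3 antibody-coated or PBS-coated plates with compounds in 5–6 point dose response from 20 or 10 μM top final (dilution factor 3.333, 0.2% DMSO final). IL2 in 24 h supernatants was measured by ProQuantum immunoassay or ELISA, normalized to DMSO (0%) and 20 μM reference compound A1 (100%) to fit EC50 and Emax.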

The target of the next assay is DGKalpha (Homo sapiens, UniProt P23743). The assay is described as follows: In vitro DGK inhibition assay (ADP-Glo, liposomes), DGKalpha. The class given is biochemical. Also noted: hDGKalpha(1-735)-N-His; His (N); made in house; host or cells: Sf21 insect cells (baculovirus). Particulars: 4 nM DGK α, 25 μM ATP, 125 uM DLG in liposomes, 1 hour reaction. The gist of the method:
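Full-length human DGKα (4 nM) or DGKζ (2 nM) from Sf21 cells, with DLG substrate at 125 uM in PS/PC liposomes and ATP at 25 μM (α) or 50 μM (ζ); 1 h reaction. ADP formed read by ADP-Glo luminescence; compounds 11-point, 1:3 dilutions from 10 mM, 2% DMSO final.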

Chain of DGKalpha (P23743 whole entry): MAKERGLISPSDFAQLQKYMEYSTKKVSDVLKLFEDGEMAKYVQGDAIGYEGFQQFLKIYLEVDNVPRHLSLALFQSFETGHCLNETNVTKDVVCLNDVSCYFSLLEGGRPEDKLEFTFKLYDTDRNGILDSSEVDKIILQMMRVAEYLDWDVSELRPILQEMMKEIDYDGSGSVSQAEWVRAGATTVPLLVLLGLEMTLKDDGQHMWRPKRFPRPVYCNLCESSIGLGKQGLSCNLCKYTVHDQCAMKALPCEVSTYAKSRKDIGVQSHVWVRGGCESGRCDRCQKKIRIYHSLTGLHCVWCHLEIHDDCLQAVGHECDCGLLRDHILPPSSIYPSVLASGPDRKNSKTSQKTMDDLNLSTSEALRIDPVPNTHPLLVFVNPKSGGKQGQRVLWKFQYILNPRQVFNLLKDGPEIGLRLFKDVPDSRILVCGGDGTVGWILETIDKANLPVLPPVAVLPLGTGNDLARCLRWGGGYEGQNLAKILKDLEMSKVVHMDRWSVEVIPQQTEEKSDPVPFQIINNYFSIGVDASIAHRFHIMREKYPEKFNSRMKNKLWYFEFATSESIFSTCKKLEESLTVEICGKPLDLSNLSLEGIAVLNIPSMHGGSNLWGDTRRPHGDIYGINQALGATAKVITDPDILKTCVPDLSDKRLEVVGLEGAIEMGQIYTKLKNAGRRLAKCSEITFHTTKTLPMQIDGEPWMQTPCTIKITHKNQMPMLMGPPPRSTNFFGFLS

The Emax is the size of the effect at its maximum, as opposed to the concentration needed. As usually defined, the EC50 is the concentration giving half of the maximal effect. Usually IC50 stands for the concentration needed to halve the response being measured. A low value points to higher potency. `CC(C)(c1nnc(-c2cc3c(cc2F)S(=O)(=O)C[C@H](N)C(=O)N3Cc2ccc(-c3ccc(C(F)(F)F)cc3)cc2)o1)S(C)(=O)=O` [Example 35, (3R)-3-amino-8-fluoro-7-[5-(1-methyl-1-methylsulfonyl-ethyl)-1,3,4-oxadiazol-2-yl]-1,1-dioxo-5-[[4-[4-(trifluoromethyl)phenyl]phenyl]methyl]-2,3-dihydro-1λ6,5-benzothiazepin-4-one]: in the assay with primary human T-cells, the Emax was found to be 239% and the EC50 came to 0.043 µM. This compound also had an IC50 against DGKalpha of 1.22 µM.
On to `CC(C)(c1nnc(-c2ccc3c(c2)N(Cc2ccc(-c4noc(C(F)(F)F)n4)cc2)C(=O)[C@@H](N)CS3(=O)=O)o1)S(C)(=O)=O` [Example 17, (3R)-3-amino-7-[5-(1-methyl-1-methylsulfonyl-ethyl)-1,3,4-oxadiazol-2-yl]-1,1-dioxo-5-[[4-[5-(trifluoromethyl)-1,2,4-oxadiazol-3-yl]phenyl]methyl]-2,3-dihydro-1λ6,5-benzothiazepin-4-one], for which, in the assay with primary human T-cells, the Emax is 153% and the EC50 is 3.42 µM. On DGKalpha, this compound showed an IC50 of 3.35 µM.
As for `CC(C)(c1nnc(-c2ccc3c(c2)N(Cc2ccc(Oc4ccc(F)c(Cl)c4)cc2)C(=O)[C@@H](N)CS3(=O)=O)o1)S(C)(=O)=O` [Example 37, (3R)-3-amino-5-[[4-(3-chloro-4-fluoro-phenoxy)phenyl]methyl]-7-[5-(1-methyl-1-methylsulfonyl-ethyl)-1,3,4-oxadiazol-2-yl]-1,1-dioxo-2,3-dihydro-1λ6,5-benzothiazepin-4-one], in the assay on primary human T-cells, the Emax stood at 135% and the 50% effective concentration (EC50) stood at 8.14 µM. For the same compound, the IC50 against DGKalpha stood at 11.1 µM.
For `CC(C)(c1nc(-c2cc3c(cc2F)S(=O)(=O)C[C@H](N)C(=O)N3Cc2ccc(-c3noc(C4CC4)n3)cc2)no1)S(C)(=O)=O` [Example 45, (3R)-3-amino-5-[[4-(5-cyclopropyl-1,2,4-oxadiazol-3-yl)phenyl]methyl]-8-fluoro-7-[5-(1-methyl-1-methylsulfonyl-ethyl)-1,2,4-oxadiazol-3-yl]-1,1-dioxo-2,3-dihydro-1λ6,5-benzothiazepin-4-one] the same measures were 190%, 0.195 µM and 0.818 µM.
Turning to `CS(=O)(=O)C1(c2nnc(-c3cc4c(cc3F)S(=O)(=O)C[C@H](N)C(=O)N4Cc3ccc(Cl)cc3)o2)CC1` [Example 1, (3R)-3-amino-5-[(4-chlorophenyl)methyl]-8-fluoro-7-[5-(1-methylsulfonylcyclopropyl)-1,3,4-oxadiazol-2-yl]-1,1-dioxo-2,3-dihydro-1λ6,5-benzothiazepin-4-one], in the assay on primary human T-cells, the Emax was 55% and the EC50 worked out at 1.01 µM. On DGKalpha, this compound returned an IC50 of 2.34 µM.
With `COc1cccc(-c2ccc(CN3C(=O)[C@@H](N)CS(=O)(=O)c4ccc(-c5nnc(C(C)(C)S(C)(=O)=O)o5)cc43)cc2)c1` [Example 22, (3R)-3-amino-5-[[4-(3-methoxyphenyl)phenyl]methyl]-7-[5-(1-methyl-1-methylsulfonyl-ethyl)-1,3,4-oxadiazol-2-yl]-1,1-dioxo-2,3-dihydro-1λ6,5-benzothiazepin-4-one], in the assay with primary human T-cells, the Emax stood at 63% and the EC50 was found to be 2.21 µM. The IC50 at DGKalpha is over 62.5 µM.
On the same counts, the results for `CC(C)(c1nc(-c2cc3c(cc2F)S(=O)(=O)C[C@H](N)C(=O)N3Cc2ccc(Oc3ccccc3)nc2)no1)S(C)(=O)=O` [Example 48, (3R)-3-amino-8-fluoro-7-[5-(1-methyl-1l-methylsulfonyl-ethyl)-1,2,4-oxadiazol-3-yl]-1,1-dioxo-5-[(6-phenoxy-3-pyridyl)methyl]-2,3-dihydro-1 λ6,5-benzothiazepin-4-one] are 165%, 1.05 µM and 1.96 µM.
Consider `CCC(CC)Oc1ccc(CN2C(=O)[C@@H](N)CS(=O)(=O)c3ccc(-c4nnc(C(C)(C)S(C)(=O)=O)o4)cc32)cc1` [Example 19, (3R)-3-amino-5-[[4-(1-ethylpropoxy)phenyl]methyl]-7-[5-(1-methyl-1-methylsulfonyl-ethyl)-1,3,4-oxadiazol-2-yl]-1,1-dioxo-2,3-dihydro-1λ6,5-benzothiazepin-4-one], for which, in the assay with primary human T-cells, the Emax is 54% and the EC50 was found to be 8.7 µM. Also, it took 1.81 µM to reach half-maximal inhibition against DGKalpha (IC50).
`CC(C)(c1nnc(-c2cc3c(cc2F)S(=O)(=O)C[C@H](N)C(=O)N3Cc2ccc(-c3ccc(C(F)(F)F)nc3)cc2)o1)S(C)(=O)=O` [Example 36]: in the assay with primary human T-cells, the Emax turned out to be 61% and the concentration giving a half-maximal response (EC50) is 0.637 µM. This compound also came in with an IC50 on DGKalpha of 1.59 µM.
For `CC(C)(c1nnc(-c2ccc3c(c2)N(Cc2ccc(Oc4cccc(F)c4)cc2)C(=O)[C@@H](N)CS3(=O)=O)o1)S(C)(=O)=O` [Example 33, (3R)-3-amino-5-[[4-(3-fluorophenoxy)phenyl]methyl]-7-[5-(1-methyl-1-methylsulfonyl-ethyl)-1,3,4-oxadiazol-2-yl]-1,1-dioxo-2,3-dihydro-1λ6,5-benzothiazepin-4-one] the same measures were 58%, 0.58 µM and 4.75 µM.
Consider `CC(C)(c1nnc(-c2ccc3c(c2)N(Cc2ccc(Oc4cccc(OC(F)(F)F)c4)cc2)C(=O)[C@@H](N)CS3(=O)=O)o1)S(C)(=O)=O` [Example 40, (3R)-3-amino-7-[5-(1-methyl-1-methylsulfonyl-ethyl)-1,3,4-oxadiazol-2-yl]-1,1-dioxo-5-[[4-[3-(trifluoromethoxy)phenoxy]phenyl]methyl]-2,3-dihydro-126,5-benzothiazepin-4-one], for which, in the assay with primary human T-cells, the Emax came to 196% and the EC50 was found to be 0.801 µM. This compound returned an IC50 at DGKalpha of 1.97 µM.
For `CN(C)S(=O)(=O)C(C)(C)c1nnc(-c2ccc3c(c2)N(Cc2ccc(-c4ccc(C(F)(F)F)cc4)cc2)C(=O)[C@@H](N)CS3(=O)=O)o1` [Example 65, 2-[5-[(3R)-3-amino-1,1,4-trioxo-5-[[4-[4-(trifluoromethyl)phenyl]phenyl]methyl]-2,3-dihydro-1λ6,5-benzothiazepin-7-yl]-1,3,4-oxadiazol-2-yl]-N,N-dimethyl-propane-2-sulfonamide], in the assay with primary human T-cells, the Emax was found to be 85% and the EC50 worked out at 3.16 µM. This compound also yielded an IC50 against DGKalpha of over 62.5 µM.
For `CC(C)(c1nc(-c2cc3c(cc2F)S(=O)(=O)C[C@H](N)C(=O)N3Cc2ccc(Cl)cc2)no1)S(C)(=O)=O` [Example 43, (3R)-3-amino-5-[(4-chlorophenyl)methyl]-8-fluoro-7-[5-(1-methyl-1-methylsulfonyl-ethyl)-1,2,4-oxadiazol-3-yl]-1,1-dioxo-2,3-dihydro-1λ6,5-benzothiazepin-4-one], in the assay on primary human T-cells, the Emax turned out to be 163% and the EC50 is 0.131 µM. Also, inhibition against DGKalpha was half-maximal at 0.64 µM (IC50).
`CS(=O)(=O)C1(c2nnc(-c3ccc4c(c3)N(Cc3ccc(Oc5ccccc5)cc3)C(=O)[C@@H](N)CS4(=O)=O)o2)CCC1` [Example 68, (3R)-3-amino-7-[5-(1-methylsulfonylcyclobutyl)-1,3,4-oxadiazol-2-yl]-1,1-dioxo-5-[(4-phenoxyphenyl)methyl]-2,3-dihydro-1λ6,5-benzothiazepin-4-one]: in the assay with primary human T-cells, the Emax worked out at 41% and the 50% effective concentration (EC50) was 2.2 µM. Moreover, the half-inhibitory concentration (IC50) against DGKalpha is over 62.5 µM.
Regarding `CC(C)(c1nnc(-c2ccc3c(c2)N(Cc2ccc(Oc4ccccc4)cc2)C(=O)[C@@H](N)CS3(=O)=O)o1)S(C)(=O)=O` [Example 5, (3R)-3-amino-7-[5-(1-methyl-1-methylsulfonyl-ethyl)-1,3,4-oxadiazol-2-yl]-1,1-dioxo-5-[(4-phenoxyphenyl)methyl]-2,3-dihydro-1λ6,5-benzothiazepin-4-one], in the assay on primary human T-cells, the Emax was found to be 118% and the EC50 stood at 2.11 µM. This compound returned an IC50 against DGKalpha of 3.12 µM.
For `CC(C)(c1nnc(-c2ccc3c(c2)N(Cc2ccc(-c4ccc(F)cn4)cc2)C(=O)[C@@H](N)CS3(=O)=O)o1)S(C)(=O)=O` [Example 9, (3R)-3-amino-5-[[4-(5-fluoro-2-pyridyl)phenyl]methyl]-7-[5-(1-methyl-1-methylsulfonyl-ethyl)-1,3,4-oxadiazol-2-yl]-1,1-dioxo-2,3-dihydro-1λ6,5-benzothiazepin-4-one] the same measures were 65%, 5.27 µM and 0.944 µM.
For `CC(C)(c1nc(-c2cc3c(cc2F)S(=O)(=O)C[C@H](N)C(=O)N3Cc2ccc(C3CCOCC3)cc2)no1)S(C)(=O)=O` [Example 53, (3R)-3-amino-8-fluoro-7-[5-(1-methyl-1-methylsulfonyl-ethyl)-1,2,4-oxadiazol-3-yl]-1,1-dioxo-5-[(4-tetrahydropyran-4-ylphenyl)methyl]-2,3-dihydro-1λ6,5-benzothiazepin-4-one] the same measures were 96%, 4.36 µM and 8.05 µM.
`CS(=O)(=O)Cn1nnc(-c2cc3c(cc2F)S(=O)(=O)C[C@H](N)C(=O)N3Cc2ccc(Oc3ccccc3)cc2)n1` [Example 54, (3R)-3-amino-8-fluoro-7-[2-(methylsulfonylmethyl)tetrazol-5-yl]-1,1-dioxo-5-[(4-phenoxyphenyl)methyl]-2,3-dihydro-1λ6,5-benzothiazepin-4-one]: in the assay with primary human T-cells, the Emax was 132% and the EC50 is 1.04 µM. This compound returned an IC50 against DGKalpha of 1.17 µM.
